Laboratory results published in patent US20090286720A1, “PHARMACEUTICAL COMPOSITION FOR THE DIAGNOSIS, PREVENTION OR TREATMENT OF A TUMORAL PATHOLOGY COMPRISING AN AGENT MODULATING THE POLYMERIZATION STATE OF ACTIN” (priority 2001, published 2009).
Starred links: 1 amine or outer side, 2 acyl side, 3 side chain; linkers in the order of their positions; H or OH if unused. Non-standard residues stand in square brackets, D forms with d. Residues, ends and D or L forms follow the SMILES beside them. X1 = CC[C@H](C)[C@H](OC(=O)[C@@H](C)[C@@H](CC)N[*:1])C(=O)[*:2]; X2 = C[C@H](N[*:1])C(=O)C(C)(C)C(=O)[*:2]; NMeY = CN[C@@H](Cc1ccc(O)cc1)C(=O)O; NMeL = CN[C@@H](CC(C)C)C(=O)O; NMeV = CN[C@H](C(=O)O)C(C)C

Legend:
actin = experiment: In vitro measurement of actin polymerization by fluorescence anisotropy in EWS-Fli cell extracts; type: biochemical; conditions: dolastatin 11 added in the polymerization buffer of EWS-Fli cell extracts; deficit versus NIH3T3 extracts; FIG. 11
Procedure: Cell extracts of NIH3T3 cells or EWS-Fli cells were brought into the presence of actin Alexa 488 in a buffer G ([…] pH 8.1; 170 μM CaCl2; 170 μM DTT; 170 μM ATP). The polymerization reaction was triggered by addition of a buffer P (KCl 51 mM, MgCl2 1 mM and ATP 0.5 mM). Dolastatin (μM) was added to the cell extracts of the EWS-Fli cells at the same time as the buffer P. Polymerization of actin was monitored by fluorescence anisotropy on a Beacon 2000. The results obtained are illustrated in FIG. 11.

EWS-Fli cells [1] = experiment: Morphological modification of EWS-Fli cells (actin filaments stained with phalloidin-FITC); type: cell-based, murine; conditions: FIG. 12
Procedure: The cells (5×10^3) were cultured on glass slides 10 mm in diameter and kept in culture for 24 hours. After fixation (3% paraformaldehyde) and permeabilization (0.2% TritonX100), the actin filaments of the cells were immunostained by phalloidin coupled to FITC. Untreated NIH3T3; NIH3T3 transfected by EWS-Fli (EF); EF incubated in the presence of 10 μM or 100 μM of jasplakinolide; EF incubated with 10 μM or 20 μM of D11 (FIG. 12).

NIH3T3 cells [2] = experiment: Morphological modification of NIH3T3 cells (actin filaments stained with phalloidin-FITC); type: cell-based, murine; conditions: same concentrations (10 or 20 nM); FIG. 12
Procedure: The cells (5×10^3) were cultured on glass slides 10 mm in diameter and kept in culture for 24 hours. After fixation (3% paraformaldehyde) and permeabilization (0.2% TritonX100), the actin filaments of the cells were immunostained by phalloidin coupled to FITC. […]

NIH3T3 cells [3] = experiment: Toxicity of dolastatin-11 by MTT test on NIH3T3 cells; type: cell-based, murine; conditions: low concentrations (10 or 20 nM), FIG. 13
Procedure: (§1) The cells (10^4 per well) were cultured in 96-well plates in the presence of different concentrations of D11. Monitoring of the toxicity of D11 in relation to time was performed by means of an MTT test on the NIH3T3 cells (A) and the EWS-Fli cells (B). The results are illustrated in FIG. 13.

EWS-Fli cells [4] = experiment: Toxicity of dolastatin-11 by MTT test on EWS-Fli cells; type: cell-based, murine; conditions: low concentrations (10 or 20 nM), FIG. 13
Procedure: as §1

EWS-Fli cells [5] = experiment: Development of tumors in the nude mouse after subcutaneous injection of EWS-Fli cells; type: in vivo; conditions: nude mice, 10 μg/kg intravenous on 5th, 8th and 11th days after EWS-Fli cell injection, measured on 28th day; FIG. 14
Procedure: Twenty-four hours after irradiation (5 Gy) of the mice, the EWS-Fli cells (10^6) were inoculated via the subcutaneous route. The mice were then separated into two lots, with the first lot corresponding to the untreated mice and the second lot to the mice having received three injections of dolastatin 11 via the intravenous route (10 μg/kg) on the 5th, 8th and 11th days after injection of the EWS-Fli cells. […]

[6] = Survival of the mice (tolerated dose); conditions: intravenous

| Structure (SMILES) | capacity of cell extracts to polymerize actin (fluorescence anisotropy) (actin) | effect on the cytoskeleton (EWS-Fli cells [1]; EWS-Fli cells incubated with 10 μM or 20 μM of D11) | contact structures between the cells (EWS-Fli cells [1]; EWS-Fli cells, 10 or 20 nM) | stress fibers and morphology of the cells (EWS-Fli cells [1]; EWS-Fli cells, 10 or 20 nM) | morphology of NIH3T3 cells (NIH3T3 cells [2]) | cytotoxicity or cytostaticity (MTT test) (NIH3T3 cells [3]) | cytotoxicity or cytostaticity (MTT test) (EWS-Fli cells [4]) | development of tumors (EWS-Fli cells [5]) | dose used (10 μg/kg) relative to the dose not affecting survival of the mice [6] | effect on the cytoskeleton (EWS-Fli cells [1]; EWS-Fli cells incubated with 10 μM or 100 μM of jasplakinolide) |
| --- | --- | --- | --- | --- | --- | --- | --- | --- | --- | --- |
| CC[C@H](C)[C@@H]1OC(=O)[C@@H](C)[C@@H](CC)NC(=O)[C@H](C)NC(=O)C(C)(C)C(=O)[C@H](C)NC(=O)[C@H](Cc2ccc(OC)cc2)N(C)C(=O)[C@H](C(C)C)N(C)C(=O)CNC(=O)[C@H](CC(C)C)N(C)C(=O)CNC1=O [dolastatin 11] (cyclo(A[X1]G[NMeL]G[NMeV][NMeY](Me)[X2])) | can compensate in part for this deficit | effect | reestablished the contact structures between the cells | restored the stress fibers of the cells with a morphology close to that of NIH3T3 cells | did not modify in the least | no cytotoxicity or cytostaticity effects were observed | no cytotoxicity or cytostaticity effects were observed | markedly delayed | five times weaker than the dose not affecting survival of the mice |  |
| C/C1=C\[C@H](C)C[C@H](C)OC(=O)C[C@H](c2ccc(O)cc2)NC(=O)[C@@H](Cc2c(Br)[nH]c3ccccc23)N(C)C(=O)[C@H](C)NC(=O)[C@@H](C)C1 [jasplakinolide] |  |  |  |  |  |  |  |  |  | effect |
